From ChEMBL document CHEMBL1201862, “PubChem BioAssay data set” (2004) come the findings set out here.

Some test systems named below: KM-20L2; RXF 631; ACHN; Malme-3M; CAKI-1; SNB-78; NCI-H23; DLD-1; M19-MEL; DMS-114; A549; SK-MEL-5; SF-539; NCI/ADR-RES; XF498; RPMI-8226; DU-145; MDA-N; TK-10; SR.
Common to all, as to assay: NCI tumour cell line growth inhibition, 48 h

Structures are written as SMILES. “And” between values parts separate entries of the source, which are not always exact repeats. Equal values may be shown once.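 Where inhibition never reached the appropriate level, the endpoint shown equals the highest concentration tested. Otherwise, values were interpolated linearly from a five-concentration, 48-hour dose response in 96-well plates. GI50 marks 50% less growth.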 The source made the active and inactive calls. No stated cut-off is given here; in the data, active = GI50 up to about 1.1 µM and inactive = higher.

As to `Cc1ccc(NC(=O)CC/C(CC(=O)C(C)(C)C)=N/NC(=O)c2cc3ccccc3cc2O)cc1C`, the GI50 in the assay with KM-20L2 is 34.5 µM (inactive); in the assay on RXF 631, 44.1 µM (inactive); with ACHN, 31 µM (inactive); with Malme-3M, 35.2 µM (inactive); in the assay on CAKI-1 it was > 100 µM (inactive); in the assay with SNB-78, 60.5 µM (inactive). The GI50 with NCI-H23 was 19.6 µM (inactive); in the assay on DLD-1, 30 µM (inactive); in the assay with M19-MEL, 39.4 µM (inactive); with DMS-114 it was 31.6 µM (inactive).

For `CCCCCCCCCCSCC(CO)NC(=O)/C=C/c1c(C)[nH]c(=O)[nH]c1=O` (stereo not given), the GI50 in the assay with KM-20L2 is 6.46 µM (inactive) and 3.37 µM (inactive); in the assay with A549 it was 32.8 µM (inactive) and > 50 µM (inactive); with Malme-3M, 813 nM (active) and 703 nM (active); in the assay with SK-MEL-5, 1.16 µM (inactive) and 1.36 µM (inactive); with SF-539, 1.46 µM (inactive) and 1.41 µM (inactive); in the assay on NCI/ADR-RES, > 50 µM (inactive) and > 42.8 µM (inactive). For the same compound, the GI50 with SNB-78 was 1.71 µM (inactive) and 1.9 µM (inactive); in the assay on XF498 it was 519 nM (active) and 687 nM (active); in the assay with DLD-1, 1.44 µM (inactive) and 1.38 µM (inactive); in the assay with M19-MEL it was 1.33 µM (inactive) and 1.06 µM (active); in the assay on RPMI-8226, 23.1 µM (inactive) and 33.5 µM (inactive); in the assay on DMS-114, 548 nM (active) and 637 nM (active).

For the compound `COc1cccc(N2C(=O)CSC2c2c[nH]c3ccccc23)c1` (stereo not given), the GI50 with DU-145, with MDA-N, with TK-10, with SK-MEL-5, with NCI-H23 and in the assay on SR was > 100 µM (inactive) each time.

In the case of `COc1ccc(C2=N/C(=C\c3ccccc3)C(=O)O2)cc1`, the GI50 was > 100 µM (inactive) in the assay on TK-10; > 100 µM (inactive) in the assay with A549; > 100 µM (inactive) in the assay with ACHN; 44.3 µM (inactive) in the assay on SF-539; 16.7 µM (inactive) in the assay on NCI/ADR-RES; 17.3 µM (inactive) in the assay with SR. In the assay on RPMI-8226, the GI50 was 36.6 µM (inactive).
